Here are results for 23 compounds from patent publication US10344025B2, “GLS1 inhibitors for treating disease” (Board of Regents, The University of Texas System, priority 2014, dated 2019).

Test [1] concerns the target purified recombinant human GAC (GLS1) (Homo sapiens (Human), UniProt O94925). The experiment in a line: GLS1 Enzymatic Activity Assay (dual-coupled enzymatic assay, resorufin/Amplex UltraRed readout).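 Further: glutamate from GAC coupled via glutamate oxidase and peroxidase to resorufin, read as fluorescence (ex 530, em 590 nm) kinetically or at 20 min, four-parameter logistic IC50 fit.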 It counts as biochemical.
The test system of test [2] is A549 cells. The experiment in a line: Proliferation Assay (A549 viability, Cell Titer Fluor, 72 hours). It counts as cell-based. Conditions: Homo sapiens, A549, 72 h. Summed up:
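A549 cells seeded at 1000 cells/well, rested 24 h, then exposed to compound in 0.5% DMSO for 72 h at 37 °C. Viability read by Cell Titer Fluor fluorescence; IC50 from four-parameter logistic fit.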

SMILES strings stand for the structures.

Sequence of purified recombinant human GAC (GLS1) (O94925 other isoform, or with tags, fused parts or gaps): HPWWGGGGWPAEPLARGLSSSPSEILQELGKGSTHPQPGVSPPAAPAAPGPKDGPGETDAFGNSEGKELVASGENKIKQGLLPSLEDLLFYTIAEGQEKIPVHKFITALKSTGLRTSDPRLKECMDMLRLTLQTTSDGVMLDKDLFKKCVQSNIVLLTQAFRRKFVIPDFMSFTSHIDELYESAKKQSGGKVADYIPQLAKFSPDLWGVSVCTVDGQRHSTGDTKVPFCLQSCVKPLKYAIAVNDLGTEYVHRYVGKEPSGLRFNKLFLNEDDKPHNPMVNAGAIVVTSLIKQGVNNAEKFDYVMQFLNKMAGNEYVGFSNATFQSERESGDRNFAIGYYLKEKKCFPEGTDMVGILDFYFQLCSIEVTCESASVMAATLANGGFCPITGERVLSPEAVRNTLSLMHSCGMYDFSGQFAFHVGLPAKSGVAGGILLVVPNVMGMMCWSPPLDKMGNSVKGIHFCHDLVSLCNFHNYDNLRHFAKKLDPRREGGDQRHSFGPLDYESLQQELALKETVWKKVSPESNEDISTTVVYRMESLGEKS

Usually IC50 stands for the point on the concentration scale where inhibition reaches its midpoint. Broadly, the EC50 is the concentration giving half of the maximal effect. The low end stands for higher potency in that assay, the high end for lower potency in that assay. `O=C(NCc1cc(C(F)(F)F)ccn1)c1cn(CC(F)CCc2nnc(C(=O)NCc3ccc(C(F)(F)F)cn3)s2)nn1` (stereo not shown) [Example 489, 5-{3-fluoro-4-[4-({[4-(trifluoromethyl)pyridin-2-yl]methyl}carbamoyl)-1H-1,2,3-triazol-1-yl]butyl}-N-{[5-(trifluoromethyl)pyridin-2-yl]methyl}-1,3,4-thiadiazole-2-carboxamide]: the IC50 in test [1] was less than 100 nM. In test [2], this compound yielded an EC50 of less than 100 nM.

Consider `O=C(NCc1cncc(C(F)(F)F)c1)c1cn(CC(F)CCc2nnc(C(=O)NCc3cccc(C(F)(F)F)n3)s2)nn1` (stereo not shown) [Example 490, 5-{3-fluoro-4-[4-({[5-(trifluoromethyl)pyridin-3-yl]methyl}carbamoyl)-1H-1,2,3-triazol-1-yl]butyl}-N-{[6-(trifluoromethyl)pyridin-2-yl]methyl}-1,3,4-thiadiazole-2-carboxamide], for which the IC50 in test [1] was less than 100 nM. Further, the EC50 in test [2] is less than 100 nM.

On to `O=C(NCc1cc(C(F)(F)F)ccn1)c1cn(CC(F)CCc2nnc(C(=O)NCc3cccc(C(F)(F)F)n3)s2)nn1` (stereo not shown) [Example 491, 5-{3-fluoro-4-[4-({[4-(trifluoromethyl)pyridin-2-yl]methyl}carbamoyl)-1H-1,2,3-triazol-1-yl]butyl}-N-{[6-(trifluoromethyl)pyridin-2-yl]methyl}-1,3,4-thiadiazole-2-carboxamide], for which the IC50 in test [1] was less than 100 nM. The EC50 in test [2] is less than 100 nM.

Take `O=C(NCc1ccc(C(F)(F)F)cn1)c1cn(CC(F)CCc2nnc(C(=O)NCc3cccc(C(F)(F)F)n3)s2)nn1` (stereo not shown) [Example 492, 5-{3-fluoro-4-[4-({[5-(trifluoromethyl)pyridin-2-yl]methyl}carbamoyl)-1H-1,2,3-triazol-1-yl]butyl}-N-{[6-(trifluoromethyl)pyridin-2-yl]methyl}-1,3,4-thiadiazole-2-carboxamide]: the half-maximal inhibitory concentration (IC50) in test [1] is less than 100 nM. In test [2], this compound gave a concentration giving a half-maximal response (EC50) of 100 to 500 nM.

For `O=C(Cc1cccc(OC(F)(F)F)c1)Nc1nnc(CCC(F)Cn2cc(C(=O)NCc3ccc(C(F)(F)F)cn3)nn2)s1` (stereo not shown) [Example 493, 1-[2-fluoro-4-(5-{2-[3-(trifluoromethoxy)phenyl]acetamido}-1,3,4-thiadiazol-2-yl)butyl]-N-{[5-(trifluoromethyl)pyridin-2-yl]methyl}-1H-1,2,3-triazole-4-carboxamide], the IC50 in test [1] was less than 100 nM. Besides, the EC50 in test [2] was less than 100 nM.

As to `O=C(Cc1cccc(OC(F)(F)F)c1)Nc1nnc(CCC(F)Cn2cc(C(=O)NCc3cccc(C(F)(F)F)n3)nn2)s1` (stereo not shown) [Example 494, 1-[2-fluoro-4-(5-{2-[3-(trifluoromethoxy)phenyl]acetamido}-1,3,4-thiadiazol-2-yl)butyl]-N-{[6-(trifluoromethyl)pyridin-2-yl]methyl}-1H-1,2,3-triazole-4-carboxamide], the IC50 in test [1] is less than 100 nM. This compound registered a half-maximal effective concentration (EC50) in test [2] of less than 100 nM.

Regarding `O=C(Cc1cccc(OC(F)(F)F)c1)Nc1nnc(CCC(F)Cn2cc(C(=O)NCc3cc(C(F)(F)F)ccn3)nn2)s1` (stereo not shown) [Example 495, 1-[2-fluoro-4-(5-{2-[3-(trifluoromethoxy)phenyl]acetamido}-1,3,4-thiadiazol-2-yl)butyl]-N-{[4-(trifluoromethyl)pyridin-2-yl]methyl}-1H-1,2,3-triazole-4-carboxamide], the IC50 in test [1] was less than 100 nM. The concentration giving a half-maximal response (EC50) in test [2] was less than 100 nM.

As for `O=C(Cc1cccc(OC(F)(F)F)c1)Nc1nnc(CCC(F)Cn2cc(C(=O)NCc3cncc(C(F)(F)F)c3)nn2)s1` (stereo not shown) [Example 496, 1-[2-fluoro-4-(5-{2-[3-(trifluoromethoxy)phenyl]acetamido}-1,3,4-thiadiazol-2-yl)butyl]-N-{[5-(trifluoromethyl)pyridin-3-yl]methyl}-1H-1,2,3-triazole-4-carboxamide], the IC50 in test [1] was less than 100 nM. Moreover, in test [2], the EC50 is less than 100 nM.

Consider `CNC(=O)c1cn(CC(F)CCc2nnc(NC(=O)Cc3cccc(OC(F)(F)F)c3)s2)nn1` (stereo not shown) [Example 497, 1-(2-fluoro-4-(5-(2-(3-(trifluoromethoxy)phenyl)acetamido)-1,3,4-thiadiazol-2-yl)butyl)-N-methyl-1H-1,2,3-triazole-4-carboxamide], for which the half-inhibitory concentration (IC50) in test [1] was less than 100 nM. The EC50 in test [2] fell in the range of 100 to 500 nM.

With `O=C(Cc1cccc(OC(F)(F)F)c1)Nc1nnc(CCC(F)Cn2cc(C(=O)NCc3ccc(C(F)(F)F)nc3)nn2)s1` (stereo not shown) [Example 498, 1-[2-fluoro-4-(5-{2-[3-(trifluoromethoxy)phenyl]acetamido}-1,3,4-thiadiazol-2-yl)butyl]-N-{[6-(trifluoromethyl)pyridin-3-yl]methyl}-1H-1,2,3-triazole-4-carboxamide], the IC50 in test [1] is less than 100 nM. In addition, the concentration for a half-maximal effect (EC50) in test [2] is less than 100 nM.

In the case of `O=C(NCc1cc(C(F)(F)F)ccn1)c1cn(CC(F)CCc2nnc(C(=O)NCC(F)(F)F)s2)nn1` (stereo not shown) [Example 499, 5-{3-fluoro-4-[4-({[4-(trifluoromethyl)pyridin-2-yl]methyl}carbamoyl)-1H-1,2,3-triazol-1-yl]butyl}-N-(2,2,2-trifluoroethyl)-1,3,4-thiadiazole-2-carboxamide], in test [1], the IC50 was in the range of 100 to 500 nM. The compound further registered an EC50 in test [2] of 100 to 500 nM.

Take `O=C(NCc1cncc(C(F)(F)F)c1)c1cn(CC(F)CCc2nnc(C(=O)NCC(F)(F)F)s2)nn1` (stereo not shown) [Example 500, 5-{3-fluoro-4-[4-({[5-(trifluoromethyl)pyridin-3-yl]methyl}carbamoyl)-1H-1,2,3-triazol-1-yl]butyl}-N-(2,2,2-trifluoroethyl)-1,3,4-thiadiazole-2-carboxamide]: the IC50 in test [1] was 100 to 500 nM. In test [2], the EC50 was 100 to 500 nM.

In the case of `CNC(=O)c1cn(CC(F)CCc2nnc(C(=O)NCc3cncc(C(F)(F)F)c3)s2)nn1` (stereo not shown) [Example 501, 5-{3-fluoro-4-[4-(methylcarbamoyl)-1H-1,2,3-triazol-1-yl]butyl}-N-{[- (trifluoromethyl)pyridin-3-yl]methyl}-1,3,4-thiadiazole-2-carboxamide], the 50% inhibitory concentration (IC50) in test [1] lay in the range of 100 to 500 nM. This compound showed an EC50 in test [2] of 100 to 500 nM.

`O=C(NCCC(F)(F)F)c1cn(CC(F)CCc2nnc(C(=O)NCc3cncc(C(F)(F)F)c3)s2)nn1` (stereo not shown) [Example 502, 5-(3-fluoro-4-{4-[(3,3,3-trifluoropropyl)carbamoyl]-1H-1,2,3-triazol-1-yl}butyl)-N-{[5-(trifluoromethyl)pyridin-3-yl]methyl}-1,3,4-thiadiazole-2-carboxamide]: in test [1], the IC50 is 100 to 500 nM. This compound also had an EC50 in test [2] of 100 to 500 nM.

Consider `CNC(=O)c1nnc(CCC(F)Cn2cc(C(=O)NCc3cc(C(F)(F)F)ccn3)nn2)s1` (stereo not shown) [Example 503, 5-{3-fluoro-4-[4-({[4-(trifluoromethyl)pyridin-2-yl]methyl}carbamoyl)-1H-1,2,3-triazol-1-yl]butyl}-N-methyl-1,3,4-thiadiazole-2-carboxamide], for which the IC50 in test [1] lay in the range of 100 to 500 nM. Besides, in test [2], the concentration giving a half-maximal response (EC50) was in the range of 500 to 5000 nM.

For the compound `CNC(=O)c1nnc(CCC(F)Cn2cc(C(=O)NCc3cccc(OC(F)(F)F)c3)nn2)s1` (stereo not shown) [Example 504, 5-{3-fluoro-4-[4-({[3-(trifluoromethoxy)phenyl]methyl}carbamoyl)-1H-1,2,3-triazol-1-yl]butyl}-N-methyl-1,3,4-thiadiazole-2-carboxamide], the concentration for half-maximal inhibition (IC50) in test [1] is less than 100 nM. The EC50 in test [2] was 100 to 500 nM.

Turning to `N#CCNC(=O)c1cn(CC(F)CCc2nnc(NC(=O)Cc3cccc(OC(F)(F)F)c3)s2)nn1` (stereo not shown) [Example 505, N-(cyanomethyl)-1-[2-fluoro-4-(5-{2-[3-(trifluoromethoxy)phenyl]acetamido}-1,3,4-thiadiazol-2-yl)butyl]-1H-1,2,3-triazole-4-carboxamide], the IC50 in test [1] was less than 100 nM. This compound also had an EC50 in test [2] of 100 to 500 nM.

On to `O=C(NCC(F)(F)F)c1cn(CC(F)CCc2nnc(C(=O)NCc3cncc(C(F)(F)F)c3)s2)nn1` (stereo not shown) [Example 506, 5-(3-fluoro-4-{4-[(2,2,2-trifluoroethyl)carbamoyl]-1H-1,2,3-triazol-1-yl}butyl)-N-{[5-(trifluoromethyl)pyridin-3-yl]methyl}-1,3,4-thiadiazole-2-carboxamide], for which the IC50 in test [1] lay within 100 to 500 nM. Further, the EC50 in test [2] is 100 to 500 nM.

As to `CNC(=O)c1nnc(CCC(F)Cn2cc(C(=O)NCc3cncc(C(F)(F)F)c3)nn2)s1` (stereo not shown) [Example 507, 5-{3-fluoro-4-[4-({[5-(trifluoromethyl)pyridin-3-yl]methyl}carbamoyl)-1H-1,2,3-triazol-1-yl]butyl}-N-methyl-1,3,4-thiadiazole-2-carboxamide], the IC50 in test [1] was 100 to 500 nM. The EC50 in test [2] was 100 to 500 nM.

Turning to `O=C(NCC(F)(F)F)c1cn(CC(F)CCc2nnc(C(=O)NCc3cc(C(F)(F)F)ccn3)s2)nn1` (stereo not shown) [Example 509, 5-(3-fluoro-4-{4-[(2,2,2-trifluoroethyl)carbamoyl]-1H-1,2,3-triazol-1-yl}butyl)-N-{[4-(trifluoromethyl)pyridin-2-yl]methyl}-1,3,4-thiadiazole-2-carboxamide], in test [1], the concentration for half-maximal inhibition (IC50) was 100 to 500 nM. The compound further came in with an EC50 in test [2] of 100 to 500 nM.

With `O=C(NCCC(F)(F)F)c1cn(CC(F)CCc2nnc(C(=O)NCc3cc(C(F)(F)F)ccn3)s2)nn1` (stereo not shown) [Example 510, 5-(3-fluoro-4-{4-[(3,3,3-trifluoropropyl)carbamoyl]-1H-1,2,3-triazol-1-yl}butyl)-N-{[4-(trifluoromethyl)pyridin-2-yl]methyl}-1,3,4-thiadiazole-2-carboxamide], the concentration for half-maximal inhibition (IC50) in test [1] was 100 to 500 nM. Further, the EC50 in test [2] is 500 to 5000 nM.

For the compound `O=C(NCc1cc(C(F)(F)F)ccn1)c1cn(CC(F)CCc2nnc(C(=O)NCCC(F)(F)F)s2)nn1` (stereo not shown) [Example 511, 5-{3-fluoro-4-[4-({[4-(trifluoromethyl)pyridin-2-yl]methyl}carbamoyl)-1H-1,2,3-triazol-1-yl]butyl}-N-(3,3,3-trifluoropropyl)-1,3,4-thiadiazole-2-carboxamide], the IC50 in test [1] fell in the range of 100 to 500 nM. In test [2], the EC50 lay in the range of 500 to 5000 nM.

For the compound `O=C(NCc1cncc(C(F)(F)F)c1)c1cn(CC(F)CCc2nnc(C(=O)NCCC(F)(F)F)s2)nn1` (stereo not shown) [Example 512, 5-{3-fluoro-4-[4-({[5-(trifluoromethyl)pyridin-3-yl]methyl}carbamoyl)-1H-1,2,3-triazol-1-yl]butyl}-N-(3,3,3-trifluoropropyl)-1,3,4-thiadiazole-2-carboxamide], the IC50 in test [1] is 100 to 500 nM. The compound further displayed an EC50 in test [2] of 100 to 500 nM.
